Reference: article PMC11823630, “In vitro potentiation of tetracyclines in Pseudomonas aeruginosa by RW01, a new cyclic peptide” (Antimicrobial Agents and Chemotherapy, 2024)
≈ marks a conversion by molar mass, not a printed value. Where a SMILES comes first, the peptide text is derived from it.

What was measured:
C57BL/6J females [1] = experiment: In vivo cumulative toxicity; parameters: species or system mice; conditions: ip 0.2 mL once a day for 3 days at 500 mg/L; n = 6; observed 7 days
Procedure: (§1) To study the acute toxicity of RW01, two groups of n = 6 C57BL/6J females (≈20 g) were treated intraperitoneally (ip) with a single dose of 0.2 mL of 250 and 500 mg/L concentrations of RW01, respectively. After administration and for 7 days, the following indicative signs of pain were assessed: reduced water (dehydration), food intake, isolation, self-mutilation, tremors/spasms, dyspnea, physical activity (increased/reduced), chromodacryorrhea, muscle stiffness, piloerection, teeth grinding, and weight loss. For cumulative toxicity determination, a group of n = 6, 7-week-old healthy C57BL/6J females was treated ip, with a 0.2 mL single dose per day for 3 days at a concentration equivalent to 500 mg/L. After administration and for 7 days, the same indicative signs of pain/toxicity detailed in the acute toxicity studies were evaluated.

C57BL/6J females [2] = experiment: In vivo acute toxicity; parameters: species or system mice; conditions: single ip dose of 0.2 mL at 250 or 500 mg/L; n = 6 per group; observed 7 days
Procedure: as §1

PAO1 one-step mutants = experiment: MIC, Sensititre custom plate, mutants summarised as a group; type: cell-based, Pseudomonas aeruginosa; conditions: mutants generated by minocycline alone
Procedure: Selection of resistant mutants was performed for minocycline with and without RW01 in three independent replicates for wild-type P. aeruginosa reference strain PAO1. Tubes containing Mueller-Hinton broth (MHB) were inoculated and incubated for 24 h at 37°C. Afterward, 1/100 dilution of each tube was incubated at 37°C in MHB to late-exponential growth phase, measured by spectrophotometry at OD600. […] A control plate without antibiotic was included as inoculum control. After overnight incubation, colony counting of each treatment was performed to analyze the generation of resistant population. The mutant prevention concentration (MPC) was defined as the lowest concentration of antibiotic yielding no growth of resistant mutants. Selected mutants were checked for susceptibility profiles by using a Sensititre custom plate (Thermo Fisher Scientific, Massachusetts, USA) for Gram-negative bacteria, following the manufacturer’s instructions.

[3] = test system: PAO1 mutant MIN1_RW01_2, mexR(G58E), pilB(G326D), hutC(Y181X); experiment: MIC, E-test on MHA; type: cell-based; conditions: Pseudomonas aeruginosa, PAO1, read-out: MIC, E-test
[4] = test system: PAO1 mutant MIN8_3, pilZ(nt18InsT); experiment: MIC, E-test on MHA; type: cell-based; conditions: Pseudomonas aeruginosa, PAO1, read-out: MIC, E-test
[5] = test system: PAO1 mutant MIN4_RW01_1, pmrB(R429H); experiment: MIC, E-test on MHA; type: cell-based; conditions: Pseudomonas aeruginosa, PAO1, read-out: MIC, E-test
[6] = test system: PAO1 mutant MIN16_4, nalC(T50P), pilM(Q62X); experiment: MIC, E-test on MHA; type: cell-based; conditions: Pseudomonas aeruginosa, PAO1, read-out: MIC, E-test
[7] = test system: PAO1 mutant MIN2_RW01_2, pmrB(M292T); experiment: MIC, E-test on MHA; type: cell-based; conditions: Pseudomonas aeruginosa, PAO1, read-out: MIC, E-test
[8] = test system: PAO1 mutant MIN16_3, nfxB(nt79∆14), pilB(N349K); experiment: MIC, E-test on MHA; type: cell-based; conditions: Pseudomonas aeruginosa, PAO1, read-out: MIC, E-test
[9] = test system: PAO1 mutant MIN4_RW01_2, pmrB(F124S); experiment: MIC, E-test on MHA; type: cell-based; conditions: Pseudomonas aeruginosa, PAO1, read-out: MIC, E-test
[10] = test system: PAO1 mutant MIN16_2, nalC(aa9∆4), pilQ(nt46∆1); experiment: MIC, E-test on MHA; type: cell-based; conditions: Pseudomonas aeruginosa, PAO1, read-out: MIC, E-test
[11] = test system: PAO1 mutant MIN8_4, pilZ(nt18InsT); experiment: MIC, E-test on MHA; type: cell-based; conditions: Pseudomonas aeruginosa, PAO1, read-out: MIC, E-test
P. aeruginosa 41A = experiment: MIC, CLSI broth microdilution in BD Phoenix AST Broth; type: cell-based, Pseudomonas aeruginosa; conditions: strain 41A
Procedure: (§2) MIC for RW01 was also tested.
(§3) FIC of RW01 (FICRW01)=MIC of RW01 in combination/MIC of RW01 alone,FIC of antibiotic (FICATB)=MIC of ATB in combination/MIC of ATB alone,FICI=FICRW01 +FICATB.
(§4) FICI was interpreted as follows: synergistic effect if FICI is ≤0.5; additive effect if 0.5 < FICI ≤ 1.0; indifferent effect if 1.0 < FICI ≤ 2.0; and finally, antagonistic effect if FICI is >2.0. The average FICI considering the antibiotic MIC (no growth in any of the replicates) at different concentrations of RW01 was calculated ([28]).

P. aeruginosa 41B = experiment: as above; type: cell-based, Pseudomonas aeruginosa; conditions: strain 41B
Procedure: as §2, §3, §4

P. aeruginosa PAOΔmexR = experiment: as above; type: cell-based, Pseudomonas aeruginosa
Procedure: as §2, §3, §4

P. aeruginosa PAOUW∆oprF = experiment: as above; type: cell-based, Pseudomonas aeruginosa
Procedure: as §2, §3, §4

P. aeruginosa 125A = experiment: as above; type: cell-based, Pseudomonas aeruginosa; conditions: strain 125A; antibiotic with RW01 at 100 mg/L
Procedure: as §2, §3, §4

P. aeruginosa 125B = experiment: as above; type: cell-based, Pseudomonas aeruginosa; conditions: strain 125B; antibiotic with RW01 at 100 mg/L
Procedure: as §2, §3, §4

P. aeruginosa PAOUW = experiment: as above; type: cell-based, Pseudomonas aeruginosa; conditions: strain PAOUW; antibiotic with RW01 at 100 mg/L
Procedure: as §2, §3, §4

P. aeruginosa PAOΔmexZ = experiment: as above; type: cell-based, Pseudomonas aeruginosa; conditions: strain PAOΔmexZ
Procedure: as §2, §3, §4

P. aeruginosa PAO1 = experiment: as above; type: cell-based, Pseudomonas aeruginosa; conditions: strain PAO1; antibiotic with RW01 at 100 mg/L
Procedure: as §2, §3, §4

P. aeruginosa PAOΔoprM = experiment: as above; type: cell-based, Pseudomonas aeruginosa
Procedure: as §2, §3, §4

[12] = test system: PAO1 mutant MIN8_2, pilZ(nt18InsT); experiment: MIC, E-test on MHA; type: cell-based; conditions: Pseudomonas aeruginosa, PAO1, read-out: MIC, E-test
[13] = test system: PAO1 mutant MIN1_RW01_1, pmrB(Y98N); experiment: MIC, E-test on MHA; type: cell-based; conditions: Pseudomonas aeruginosa, PAO1, read-out: MIC, E-test
[14] = test system: PAO1 mutant MIN4_RW01_3, pmrB(M292T); experiment: MIC, E-test on MHA; type: cell-based; conditions: Pseudomonas aeruginosa, PAO1, read-out: MIC, E-test
[15] = test system: PAO1 mutant MIN16_1, nalD(T43P); experiment: MIC, E-test on MHA; type: cell-based; conditions: Pseudomonas aeruginosa, PAO1, read-out: MIC, E-test
[16] = test system: PAO1 mutant MIN2_RW01_1, pmrB(V215L); experiment: MIC, E-test on MHA; type: cell-based; conditions: Pseudomonas aeruginosa, PAO1, read-out: MIC, E-test
[17] = test system: PAO1 mutant MIN2_RW01_4, pmrB(M292T); experiment: MIC, E-test on MHA; type: cell-based; conditions: Pseudomonas aeruginosa, PAO1, read-out: MIC, E-test
[18] = test system: PAO1 mutant MIN2_RW01_3, parS(V152A); experiment: MIC, E-test on MHA; type: cell-based; conditions: Pseudomonas aeruginosa, PAO1, read-out: MIC, E-test
[19] = test system: PAO1 mutant MIN4_RW01_4, pmrB(Y98N); experiment: MIC, E-test on MHA; type: cell-based; conditions: Pseudomonas aeruginosa, PAO1, read-out: MIC, E-test
[20] = test system: PAO1 mutant MIN32_1, mexR(R63H), pilB(N349K), PA0646(V316G); experiment: MIC, E-test on MHA; type: cell-based; conditions: Pseudomonas aeruginosa, PAO1, read-out: MIC, E-test
[21] = test system: PAO1 mutant MIN8_1, nalD(R3C), pilM(Q62X); experiment: MIC, E-test on MHA; type: cell-based; conditions: Pseudomonas aeruginosa, PAO1, read-out: MIC, E-test
[22] = test system: PAO1 mutant MIN1_RW01_3, pmrB(V215L); experiment: MIC, E-test on MHA; type: cell-based; conditions: Pseudomonas aeruginosa, PAO1, read-out: MIC, E-test
[23] = test system: PAO1 mutant MIN1_RW01_4, pmrB(F124L); experiment: MIC, E-test on MHA; type: cell-based; conditions: Pseudomonas aeruginosa, PAO1, read-out: MIC, E-test
[24] = Pseudomonas aeruginosa, agent alone, 37°C, 18–22 h, three biological replicates
[25] = antibiotic with RW01 at 100 mg/L
[26] = strain PAOΔmexR, antibiotic with RW01 at 100 mg/L
[27] = strain PAOUWΔoprF (printed PAOΔoprF), antibiotic with RW01 at 100 mg/L
[28] = strain PAOΔoprM, antibiotic with RW01 at 100 mg/L

In the case of N=C(N)NCCC[C@@H]1NC(=O)[C@H]2C[C@H](N)CN2C(=O)[C@H](Cc2c[nH]c3ccccc23)NC(=O)[C@H](CCCNC(=N)N)NC(=O)[C@H]2CCCN2C(=O)[C@H](Cc2c[nH]c3ccccc23)NC1=O [RW01] (HELM PEPTIDE1{R.W.[dP].R.W.[N[C@H]1C[C@H](C(=O)[*:2])N([*:1])C1]}$PEPTIDE1,PEPTIDE1,1:R1-6:R2$$$V2.0), the “signs of pain/toxicity, cumulative toxicity” value (C57BL/6J females [1]) is reported as “None of the doses tested of RW01 showed any of the 11 symptoms indicative of pain/toxicity” and the “signs of pain/toxicity, acute toxicity” value (C57BL/6J females [2]) is reported as “None of the doses tested of RW01 showed any of the 11 symptoms indicative of pain/toxicity”.
In the case of colistin, the “colistin MIC vs wild type” value (PAO1 one-step mutants) is reported as “remained unchanged”.
CN(C)[C@@H]1C(O)=C(C(N)=O)C(=O)[C@@]2(O)C(O)=C3C(=O)c4c(O)cccc4[C@@](C)(O)[C@H]3C[C@@H]12 [Tetracycline, tetracycline] gave an MIC [3] of 256 µg/mL (≈ 576 µM), an MIC [4] of 64 µg/mL (≈ 144 µM) and an MIC [5] of 256 µg/mL (≈ 576 µM). It also gave an MIC [6] of 64 µg/mL (≈ 144 µM), an MIC [7] of 192 µg/mL (≈ 432 µM) and an MIC [8] of 128 µg/mL (≈ 288 µM). The MIC [9] was 64 µg/mL (≈ 144 µM), the MIC [10] was 96 µg/mL (≈ 216 µM) and the MIC [11] was 64 µg/mL (≈ 144 µM). For the same compound, the MIC (P. aeruginosa 41A; [24]) was 16 µg/mL, the FICI-determined effect (P. aeruginosa 41A; [25]) was “Additivity (additive effect if 0.5 < FICI ≤ 1.0)” and the MIC (P. aeruginosa 41B; [24]) was 16 µg/mL. For the same compound, the FICI-determined effect (P. aeruginosa 41B; [25]) was “Additivity (additive effect if 0.5 < FICI ≤ 1.0)”, the MIC (P. aeruginosa PAOΔmexR; Pseudomonas aeruginosa) was 16 µg/mL and the “Antibiotic MIC + RW01 100 mg/L” value (P. aeruginosa PAOΔmexR; strain PAOΔmexR, MIC of the antibiotic with fixed 100 mg/L RW01) was 4 µg/mL. The FICI (P. aeruginosa PAOΔmexR; [26]) was 0.348, the FICI-determined effect (P. aeruginosa PAOΔmexR; [26]) was “Synergy (synergistic effect if FICI is ≤0.5)” and the FICI (P. aeruginosa PAOUW∆oprF; [27]) was 0.223. For the same compound, the FICI-determined effect (P. aeruginosa PAOUW∆oprF; [27]) was “Synergy (synergistic effect if FICI is ≤0.5)”, the MIC (P. aeruginosa PAOUW∆oprF; strain PAOUWΔoprF, agent alone, 37°C, 18–22 h, three biological replicates) was 16 µg/mL and the FICI-determined effect (P. aeruginosa 125A) was “Synergy (synergistic effect if FICI is ≤0.5)”. For the same compound, the FICI (P. aeruginosa 125B) was 0.445, the FICI-determined effect (P. aeruginosa 125B) was “Synergy (synergistic effect if FICI is ≤0.5)” and the FICI-determined effect (P. aeruginosa PAOUW) was “Synergy (synergistic effect if FICI is ≤0.5)”. For the same compound, the MIC (P. aeruginosa PAOΔmexZ; [24]) was 16 µg/mL, the FICI (P. aeruginosa PAOΔmexZ; [25]) was 0.223 and the FICI-determined effect (P. aeruginosa PAOΔmexZ; [25]) was “Synergy (synergistic effect if FICI is ≤0.5)”. The FICI (P. aeruginosa PAO1) was 0.445, the FICI-determined effect (P. aeruginosa PAO1) was “Synergy (synergistic effect if FICI is ≤0.5)” and the MIC (P. aeruginosa PAOΔoprM; Pseudomonas aeruginosa) was 1 µg/mL. The “Antibiotic MIC + RW01 100 mg/L” value (P. aeruginosa PAOΔoprM; strain PAOΔoprM, MIC of the antibiotic with fixed 100 mg/L RW01) was 0.5 µg/mL, the FICI (P. aeruginosa PAOΔoprM; [28]) was 0.598 and the FICI-determined effect (P. aeruginosa PAOΔoprM; [28]) was “Additivity (additive effect if 0.5 < FICI ≤ 1.0)”. For the same compound, the MIC [12] was 256 µg/mL (≈ 576 µM), the MIC [13] was 192 µg/mL (≈ 432 µM) and the MIC [14] was 256 µg/mL (≈ 576 µM). For the same compound, the MIC [15] was 256 µg/mL (≈ 576 µM), the MIC [16] was 128 µg/mL (≈ 288 µM) and the MIC [17] was 96 µg/mL (≈ 216 µM). The MIC [18] was 256 µg/mL (≈ 576 µM), the MIC [19] was 96 µg/mL (≈ 216 µM) and the MIC [20] was 256 µg/mL (≈ 576 µM). For the same compound, the MIC [21] was 256 µg/mL (≈ 576 µM), the MIC [22] was 256 µg/mL (≈ 576 µM) and the MIC [23] was 64 µg/mL (≈ 144 µM).
